In the supplement of paper PMC5908809:

Assays:
[1] = test system: normal NK cells expanded with K562-aAPC; experiment: percent inhibition of viability; higher = more inhibition; details: 72 h, IL-2 2.5 ng/mL
Protocol: (§1)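 Drug sensitivity and resistance testing on K562-aAPC-expanded normal NK cells: 5 concentrations (10-fold steps over a 10,000-fold range), 72 h at 37 °C, viability by CellTiter-Glo normalised to DMSO and benzethonium chloride controls; DSS from the fitted curve.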

DERL-7 (IL-2 2.5 ng/mL) [2] = experiment: as above; details: 72 h
IMC-1 (IL-2 20 ng/mL) [3] = experiment: as above; details: 72 h
KAI3 (IL-2 2.5 ng/mL) [4] = experiment: as above; details: 72 h
KHYG-1 (IL-2 2.5 ng/mL) [5] = experiment: as above; details: 72 h
NK-92 (IL-2 2.5 ng/mL) [6] = experiment: as above; details: 72 h
NK-YS (IL-2 2.5 ng/mL) [7] = experiment: as above; details: 72 h
NKL (IL-2 2.5 ng/mL) [8] = experiment: as above; details: 72 h
SNK-6 (IL-2 2.5 ng/mL) [9] = experiment: as above; details: 72 h
YT (IL-2 2.5 ng/mL) [10] = experiment: as above; details: 72 h
[11] = test system: normal primary NK cells, pool 1 (3 donors) (IL-2 2.5 ng/mL); experiment: as above; details: 72 h
[12] = test system: normal primary NK cells, pool 1 (3 donors), resting (IL-2 0 ng/mL); experiment: as above; details: 72 h
[13] = test system: normal primary NK cells, pool 2 (3 donors) (IL-2 2.5 ng/mL); experiment: as above; details: 72 h
[14] = test system: normal primary NK cells, pool 3 (3 donors) (IL-2 2.5 ng/mL); experiment: as above; details: 72 h
[15] = test system: normal NK cells expanded with K562-aAPC; experiment: drug sensitivity score (DSS) (DSS units); higher = more sensitive; extreme values may be limits of the assay; details: 72 h; IL-2 2.5 ng/mL
Protocol: as §1

DERL-7 (IL-2 2.5 ng/mL) [16] = experiment: as above; details: 72 h
IMC-1 (IL-2 20 ng/mL) [17] = experiment: as above; details: 72 h
KAI3 (IL-2 2.5 ng/mL) [18] = experiment: as above; details: 72 h
KHYG-1 (IL-2 2.5 ng/mL) [19] = experiment: as above; details: 72 h
NK-92 (IL-2 2.5 ng/mL) [20] = experiment: as above; details: 72 h
NK-YS (IL-2 2.5 ng/mL) [21] = experiment: as above; details: 72 h
NKL (IL-2 2.5 ng/mL) [22] = experiment: as above; details: 72 h
SNK-6 (IL-2 2.5 ng/mL) [23] = experiment: as above; details: 72 h
YT (IL-2 2.5 ng/mL) [24] = experiment: as above; details: 72 h
[25] = test system: normal primary NK cells, pool 1 (3 donors) (IL-2 2.5 ng/mL); experiment: as above; details: 72 h
[26] = test system: normal primary NK cells, pool 1 (3 donors), resting (IL-2 0 ng/mL); experiment: as above; details: 72 h
[27] = test system: normal primary NK cells, pool 2 (3 donors) (IL-2 2.5 ng/mL); experiment: as above; details: 72 h
[28] = test system: normal primary NK cells, pool 3 (3 donors) (IL-2 2.5 ng/mL); experiment: as above; details: 72 h

Clc1ccc(C(c2ccccc2Cl)C(Cl)Cl)cc1 (stereo not drawn) [Mitotane] (max concentration tested 10000 nM)
percent inhibition of viability [%]
Details | 1 nM | 10 nM | 100 nM | 1000 nM | 10000 nM
DERL-7 (IL-2 2.5 ng/mL) [2] | -3.98 | -2.6 | -1.88 | -5.27 | 1.52
IMC-1 (IL-2 20 ng/mL) [3] | -4 | -2.56 | -9 | -5.63 | -8.85
KAI3 (IL-2 2.5 ng/mL) [4] | -6.14 | -3.83 | -3.7 | -6.65 | -4.73
KHYG-1 (IL-2 2.5 ng/mL) [5] | -5.54 | -6.16 | -6.75 | -7.76 | -6.11
NK-92 (IL-2 2.5 ng/mL) [6] | -11.9 | -11.6 | -10.9 | -14.2 | -13.7
NK-YS (IL-2 2.5 ng/mL) [7] | -3.11 | -4.91 | -8.11 | -1.41 | -4.03
NKL (IL-2 2.5 ng/mL) [8] | -23.5 | -31.7 | -25.8 | -21.9 | -16.6
SNK-6 (IL-2 2.5 ng/mL) [9] | 11.9 | 12.4 | -5.92 | -1.09 | -8.81
YT (IL-2 2.5 ng/mL) [10] | -5.71 | -7.2 | -6.08 | -5.64 | -3.1
[1] | -3.47 | -5.5 | -2.42 | -6.05 | -4.65
[11] | -4.65 | -4.88 | 5.61 | -1.23 | -0.57
[12] | -7.77 | -15.2 | 11.9 | -9.1 | 7.07
[13] | -6.28 | -4.83 | -5.23 | -1.37 | -4.6
[14] | -8.66 | -9.61 | -7 | -8.07 | 0.73

Details | drug sensitivity score
DERL-7 (IL-2 2.5 ng/mL) [16] | 0
IMC-1 (IL-2 20 ng/mL) [17] | 0
KAI3 (IL-2 2.5 ng/mL) [18] | 0
KHYG-1 (IL-2 2.5 ng/mL) [19] | 0
NK-92 (IL-2 2.5 ng/mL) [20] | 0
NK-YS (IL-2 2.5 ng/mL) [21] | 0
NKL (IL-2 2.5 ng/mL) [22] | 0
SNK-6 (IL-2 2.5 ng/mL) [23] | 0
YT (IL-2 2.5 ng/mL) [24] | 0
[15] | 0
[25] | 0
[26] | 0
[27] | 0
[28] | 0

CC(C)(C)c1cc(NC(=O)Nc2ccc(-c3cn4c(n3)sc3cc(OCCN5CCOCC5)ccc34)cc2)no1 [Quizartinib] (max concentration tested 1000 nM)
percent inhibition of viability [%]
Details | 0.1 nM | 1 nM | 10 nM | 100 nM | 1000 nM
DERL-7 (IL-2 2.5 ng/mL) [2] | 4.27 | 4.47 | 0.07 | 4.17 | 33.4
IMC-1 (IL-2 20 ng/mL) [3] | -3.97 | -4.91 | -0.67 | -2.42 | -27
KAI3 (IL-2 2.5 ng/mL) [4] | 0.8 | -2.84 | 2.67 | 15.2 | 68.6
KHYG-1 (IL-2 2.5 ng/mL) [5] | -4.77 | -6.69 | -1.59 | 7.07 | 69.5
NK-92 (IL-2 2.5 ng/mL) [6] | 4.94 | 6.77 | 3.37 | 9.08 | 32.8
NK-YS (IL-2 2.5 ng/mL) [7] | -4.56 | -6.94 | -2.6 | 3.09 | 45.4
NKL (IL-2 2.5 ng/mL) [8] | -4.32 | -4.59 | -3.22 | 6.3 | 40.2
SNK-6 (IL-2 2.5 ng/mL) [9] | 19.5 | -15.2 | -9.07 | -27.8 | 31.3
YT (IL-2 2.5 ng/mL) [10] | -3.18 | -4.77 | -2.32 | 8.06 | 28.5
[1] | -5.93 | -6.07 | -5.11 | 1.78 | 12
[11] | -1.34 | 14.2 | 4.45 | 6.54 | 7.43
[12] | 6.94 | 18.5 | 11.5 | 15.2 | 11.1
[13] | -4.07 | 3.45 | 0.79 | 8.48 | 5.08
[14] | -1.63 | 14.8 | 1.27 | -1.92 | 11.7

Details | drug sensitivity score
DERL-7 (IL-2 2.5 ng/mL) [16] | 2.22
IMC-1 (IL-2 20 ng/mL) [17] | 0
KAI3 (IL-2 2.5 ng/mL) [18] | 6.21
KHYG-1 (IL-2 2.5 ng/mL) [19] | 4.98
NK-92 (IL-2 2.5 ng/mL) [20] | 2.69
NK-YS (IL-2 2.5 ng/mL) [21] | 2.8
NKL (IL-2 2.5 ng/mL) [22] | 3.06
SNK-6 (IL-2 2.5 ng/mL) [23] | 0.72
YT (IL-2 2.5 ng/mL) [24] | 2.36
[15] | 0.13
[25] | 0
[26] | 0
[27] | 0
[28] | 0.01
